# Data as given in PMC9762412 (SLAS discovery : advancing life sciences R & D, 2022).
# Entries after “also recorded” stand apart in the source; their conditions may differ.
# What was measured:
# [1] = tested on: CRF1+ neurons in the central nucleus of the amygdala (CeA); assay: Electrophysiology, mIPSCs of CRF1+ neurons in CeA slices; set-up: species or system mouse
# [2] = tested on: VTA dopamine neurons, NMDAR EPSCs; assay: Electrophysiology, NMDAR EPSCs of VTA dopamine neurons in slices; set-up: species or system mouse; settings: CRF 1 μM, VTA-DA neurons, male and female mice
smiles,measurement,setting,value
"CC[C@H](C)[C@H](NC(=O)[C@@H](NC(=O)[C@H](CCC(=O)O)NC(=O)[C@H](CCSC)NC(=O)[C@H](CC(C)C)NC(=O)[C@H](CCCCN)NC(=O)[C@H](CCCNC(=N)N)NC(=O)[C@H](CC(N)=O)NC(=O)[C@H](CO)NC(=O)[C@H](Cc1c[nH]cn1)NC(=O)[C@H](C)NC(=O)[C@H](CCC(N)=O)NC(=O)[C@H](CCC(N)=O)NC(=O)[C@H](C)NC(=O)[C@H](CC(C)C)NC(=O)[C@H](CCC(N)=O)NC(=O)[C@H](CCC(=O)O)NC(=O)[C@H](C)NC(=O)[C@H](CCCNC(=N)N)NC(=O)[C@H](C)NC(=O)[C@H](CCSC)NC(=O)[C@H](CCC(=O)O)NC(=O)[C@H](CC(C)C)NC(=O)[C@@H](NC(=O)[C@H](CCC(=O)O)NC(=O)[C@H](CCCNC(=N)N)NC(=O)[C@H](CC(C)C)NC(=O)[C@H](CC(C)C)NC(=O)[C@H](Cc1c[nH]cn1)NC(=O)[C@H](Cc1ccccc1)NC(=O)[C@@H](NC(=O)[C@H](CC(C)C)NC(=O)[C@H](CC(=O)O)NC(=O)[C@H](CC(C)C)NC(=O)[C@H](CO)NC(=O)[C@@H](NC(=O)[C@@H]1CCCN1C(=O)[C@@H]1CCCN1C(=O)[C@H](CCC(=O)O)NC(=O)[C@H](CCC(=O)O)NC(=O)[C@@H](N)CO)[C@@H](C)CC)[C@@H](C)O)C(C)C)[C@@H](C)CC)C(N)=O [CRF, corticotropin releasing factor]",Change in mIPSC properties by CRF after pre-treatment,[1],did not induce changes; also recorded: do not produce significant changes
same,Effect of CRF on NMDA receptor EPSCs,[2],potentiated
